In patent US12077503B2, “Substituted cyclic amides and their use as herbicides” (FMC CORPORATION, priority 2015, dated 2024):

Assays:
Assay type in all cases: in vivo
[1] = system: barnyardgrass (Echinochloa crus-galli); test: Test G Pre-Emergence Protocol; settings: Echinochloa crus-galli, pre-emergence, 312 h, evaluated after 13 days; for pest or weed control at 15.625 g/ha: 15.625 g ai/ha, read-out: Barnyard grass damage rating (100=total damage to plant; 0=no damage to plant); for pest or weed control at 62.5 g/ha: 62.5 g ai/ha, 100=total damage to plant, 0=no damage to plant, read-out: plant damage rating, Barnyardgrass; for pest or weed control at 250 g/ha: 250 g ai/ha, read-out: Barnyardgrass damage rating (100=total damage to plant; 0=no damage to plant)
Outline: (§1)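 Scores are visual damage ratings from 0 (no damage) to 100 (total plant kill), taken 13 days after treatment. Compound was sprayed one day post-sowing at 15.625, 62.5 or 250 g/ha in 50:50 acetone/water with 0.5% Tween 20.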

corn (Zea mays) [2] = test: Test G Pre-Emergence Protocol; settings: Zea mays, pre-emergence, 312 h, evaluated after 13 days; for plant injury at 15.625 g/ha: 15.625 g ai/ha; for plant injury at 15.625 g/ha / plant injury at 250 g/ha: read-out: Corn damage rating (100=total damage to plant; 0=no damage to plant); for plant injury at 62.5 g/ha: 62.5 g ai/ha, 100=total damage to plant, 0=no damage to plant, read-out: plant damage rating, Corn; for plant injury at 250 g/ha: 250 g ai/ha
Outline: as §1

[3] = system: giant foxtail (Setaria faberi); test: Test G Pre-Emergence Protocol; settings: Setaria faberi, pre-emergence, 312 h, evaluated after 13 days; for pest or weed control at 15.625 g/ha: 15.625 g ai/ha; for pest or weed control at 15.625 g/ha / pest or weed control at 250 g/ha: read-out: Foxtail, Giant damage rating (100=total damage to plant; 0=no damage to plant); for pest or weed control at 62.5 g/ha: 62.5 g ai/ha, 100=total damage to plant, 0=no damage to plant, read-out: plant damage rating, Foxtail, Giant; for pest or weed control at 250 g/ha: 250 g ai/ha
Outline: as §1

[4] = system: ivy-leaved morning glory (Ipomoea hederacea); test: Test G Pre-Emergence Protocol; settings: Ipomoea, pre-emergence, 312 h, evaluated after 13 days; for pest or weed control at 15.625 g/ha: 15.625 g ai/ha, read-out: Morning-glory, Ivy-leaved damage rating (100=total damage to plant; 0=no damage to plant); for pest or weed control at 62.5 g/ha: 62.5 g ai/ha, 100=total damage to plant, 0=no damage to plant, read-out: plant damage rating, Morningglory, Ivy-leaved; for pest or weed control at 250 g/ha: 250 g ai/ha, read-out: Morningglory, Ivy-leaved damage rating (100=total damage to plant; 0=no damage to plant)
Outline: as §1

[5] = system: redroot pigweed (Amaranthus retroflexus); test: Test G Pre-Emergence Protocol; settings: Amaranthus retroflexus, pre-emergence, 312 h, evaluated after 13 days; for pest or weed control at 15.625 g/ha: 15.625 g ai/ha; for pest or weed control at 15.625 g/ha / pest or weed control at 250 g/ha: read-out: Pigweed, Redroot damage rating (100=total damage to plant; 0=no damage to plant); for pest or weed control at 62.5 g/ha: 62.5 g ai/ha, 100=total damage to plant, 0=no damage to plant, read-out: plant damage rating, Pigweed, Redroot; for pest or weed control at 250 g/ha: 250 g ai/ha
Outline: as §1

[6] = system: velvetleaf (Abutilon theophrasti); test: Test G Pre-Emergence Protocol; settings: Abutilon theophrasti, pre-emergence, 312 h, evaluated after 13 days; for pest or weed control at 15.625 g/ha: 15.625 g ai/ha; for pest or weed control at 15.625 g/ha / pest or weed control at 250 g/ha: read-out: Velvetleaf damage rating (100=total damage to plant; 0=no damage to plant); for pest or weed control at 62.5 g/ha: 62.5 g ai/ha, 100=total damage to plant, 0=no damage to plant, read-out: plant damage rating, Velvetleaf; for pest or weed control at 250 g/ha: 250 g ai/ha
Outline: as §1

[7] = system: barnyardgrass (Echinochloa crus-galli); test: Test G Post-Emergence Protocol; settings: Echinochloa crus-galli, post-emergence, 312 h; for pest or weed control at 15.625 g/ha: 15.625 g ai/ha, evaluated after 13 days (100=total damage to plant; 0=no damage to plant), read-out: Barnyardgrass damage rating; for pest or weed control at 62.5 g/ha: 62.5 g ai/ha, read-out: Barnyardgrass damage rating (100=total damage to plant; 0=no damage to plant); for pest or weed control at 62.5 g/ha / pest or weed control at 250 g/ha: evaluated after 13 days; for pest or weed control at 250 g/ha: 250 g ai/ha, read-out: damage to plant, Barnyardgrass (100=total damage to plant; 0=no damage to plant)
Outline: (§2)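 Damage was rated 13 days after treatment from 0 (none) to 100 (plant killed). Compound was applied as a spray at 15.625, 62.5 or 250 g/ha in 50:50 acetone/water containing 0.5% Tween 20, onto 8-day-old potted plants kept in a glasshouse (24/16 °C, 14 h light, 65% humidity).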

corn (Zea mays) [8] = test: Test G Post-Emergence Protocol; settings: Zea mays, post-emergence, 312 h; for plant injury at 15.625 g/ha: 15.625 g ai/ha, evaluated after 13 days (100=total damage to plant; 0=no damage to plant), read-out: Corn damage rating; for plant injury at 62.5 g/ha: 62.5 g ai/ha, read-out: Corn damage rating (100=total damage to plant; 0=no damage to plant); for plant injury at 62.5 g/ha / plant injury at 250 g/ha: evaluated after 13 days; for plant injury at 250 g/ha: 250 g ai/ha, read-out: damage to plant, Corn (100=total damage to plant; 0=no damage to plant)
Outline: as §2

[9] = system: giant foxtail (Setaria faberi); test: Test G Post-Emergence Protocol; settings: Setaria faberi, post-emergence, 312 h; for pest or weed control at 15.625 g/ha: 15.625 g ai/ha, evaluated after 13 days (100=total damage to plant; 0=no damage to plant), read-out: Foxtail, Giant damage rating; for pest or weed control at 62.5 g/ha: 62.5 g ai/ha, read-out: Foxtail, Giant damage rating (100=total damage to plant; 0=no damage to plant); for pest or weed control at 62.5 g/ha / pest or weed control at 250 g/ha: evaluated after 13 days; for pest or weed control at 250 g/ha: 250 g ai/ha, read-out: damage to plant, Foxtail, Giant (100=total damage to plant; 0=no damage to plant)
Outline: as §2

[10] = system: ivy-leaved morning glory (Ipomoea hederacea); test: Test G Post-Emergence Protocol; settings: Ipomoea, post-emergence, 312 h; for pest or weed control at 15.625 g/ha: 15.625 g ai/ha, evaluated after 13 days (100=total damage to plant; 0=no damage to plant), read-out: Morningglory, Ivy-leaved damage rating; for pest or weed control at 62.5 g/ha: 62.5 g ai/ha, read-out: Morningglory, Ivy-leaved damage rating (100=total damage to plant; 0=no damage to plant); for pest or weed control at 62.5 g/ha / pest or weed control at 250 g/ha: evaluated after 13 days; for pest or weed control at 250 g/ha: 250 g ai/ha, read-out: damage to plant, Morningglory, Ivy-leaved (100=total damage to plant; 0=no damage to plant)
Outline: as §2

[11] = system: redroot pigweed (Amaranthus retroflexus); test: Test G Post-Emergence Protocol; settings: Amaranthus retroflexus, post-emergence, 312 h; for pest or weed control at 15.625 g/ha: 15.625 g ai/ha, evaluated after 13 days (100=total damage to plant; 0=no damage to plant), read-out: Pigweed, Redroot damage rating; for pest or weed control at 62.5 g/ha: 62.5 g ai/ha, read-out: Pigweed, Redroot damage rating (100=total damage to plant; 0=no damage to plant); for pest or weed control at 62.5 g/ha / pest or weed control at 250 g/ha: evaluated after 13 days; for pest or weed control at 250 g/ha: 250 g ai/ha, read-out: damage to plant, Pigweed, Redroot (100=total damage to plant; 0=no damage to plant)
Outline: as §2

[12] = system: velvetleaf (Abutilon theophrasti); test: Test G Post-Emergence Protocol; settings: Abutilon theophrasti, post-emergence, 312 h; for pest or weed control at 15.625 g/ha: 15.625 g ai/ha, evaluated after 13 days (100=total damage to plant; 0=no damage to plant), read-out: Velvetleaf damage rating; for pest or weed control at 62.5 g/ha: 62.5 g ai/ha, read-out: Velvetleaf damage rating (100=total damage to plant; 0=no damage to plant); for pest or weed control at 62.5 g/ha / pest or weed control at 250 g/ha: evaluated after 13 days; for pest or weed control at 250 g/ha: 250 g ai/ha, read-out: damage to plant, Velvetleaf (100=total damage to plant; 0=no damage to plant)
Outline: as §2

Compound | pest or weed control at 15.625 g/ha [1] | pest or weed control at 62.5 g/ha [1] | pest or weed control at 250 g/ha [1] | plant injury at 15.625 g/ha (corn (Zea mays) [2]) | plant injury at 62.5 g/ha (corn (Zea mays) [2]) | plant injury at 250 g/ha (corn (Zea mays) [2]) | pest or weed control at 15.625 g/ha [3] | pest or weed control at 62.5 g/ha [3] | pest or weed control at 250 g/ha [3] | pest or weed control at 15.625 g/ha [4] | pest or weed control at 62.5 g/ha [4] | pest or weed control at 250 g/ha [4] | pest or weed control at 15.625 g/ha [5] | pest or weed control at 62.5 g/ha [5] | pest or weed control at 250 g/ha [5] | pest or weed control at 15.625 g/ha [6] | pest or weed control at 62.5 g/ha [6] | pest or weed control at 250 g/ha [6] | pest or weed control at 15.625 g/ha [7] | pest or weed control at 62.5 g/ha [7] | other results
CN1C[C@H](c2cccc(C(F)F)c2)[C@@H](C(=O)Nc2cccc(F)c2F)C1=O (racemic) [Compound 1588] | 80% | 90% | 90% | 40% | 60% | 80% | 70% | 80% | 90% | 20% | 0% | 80% | 0% | 40% | 70% | 0% | 10% | 20% | 80% | 80% | pest or weed control at 250 g/ha [7]: 80%; plant injury at 15.625 g/ha (corn (Zea mays) [8]): 60%; plant injury at 62.5 g/ha (corn (Zea mays) [8]): 80%; plant injury at 250 g/ha (corn (Zea mays) [8]): 80%; pest or weed control at 15.625 g/ha [9]: 60%; pest or weed control at 62.5 g/ha [9]: 70%; pest or weed control at 250 g/ha [9]: 70%; pest or weed control at 15.625 g/ha [10]: 70%; pest or weed control at 62.5 g/ha [10]: 20%; pest or weed control at 250 g/ha [10]: 50%; pest or weed control at 15.625 g/ha [11]: 0%; pest or weed control at 62.5 g/ha [11]: 0%; pest or weed control at 250 g/ha [11]: 20%; pest or weed control at 15.625 g/ha [12]: 0%; pest or weed control at 62.5 g/ha [12]: 0%; pest or weed control at 250 g/ha [12]: 40%
Cc1ccc(NC(=O)[C@@H]2C(=O)N(C)C[C@H]2c2ccc(C(F)(F)F)cc2)nn1 (racemic) [Compound 1543] | 0% | 0% | 0% | 0% | 0% | 0% | 0% | 0% | 0% | 0% | 0% | 0% | 0% | 0% | 0% | 0% | 0% | 0% | 0% | 0% | pest or weed control at 250 g/ha [7]: 0%; plant injury at 15.625 g/ha (corn (Zea mays) [8]): 0%; plant injury at 62.5 g/ha (corn (Zea mays) [8]): 0%; plant injury at 250 g/ha (corn (Zea mays) [8]): 10%; pest or weed control at 15.625 g/ha [9]: 0%; pest or weed control at 62.5 g/ha [9]: 0%; pest or weed control at 250 g/ha [9]: 20%; pest or weed control at 15.625 g/ha [10]: 0%; pest or weed control at 62.5 g/ha [10]: 0%; pest or weed control at 250 g/ha [10]: 30%; pest or weed control at 15.625 g/ha [11]: 0%; pest or weed control at 62.5 g/ha [11]: 0%; pest or weed control at 250 g/ha [11]: 40%; pest or weed control at 15.625 g/ha [12]: 0%; pest or weed control at 62.5 g/ha [12]: 0%; pest or weed control at 250 g/ha [12]: 30%
